Molecules are shown by their SMILES.

Usually Ki stands for the dissociation constant of the complex between target and ligand, obtained from inhibition or displacement.

For this test, the target named is Beta-secretase 1 (Homo sapiens, UniProt P56817). The test is described as follows: Competitive inhibition of human recombinant BACE1 by Lineweaver-Burke plot analysis.
Beta-secretase 1, sequence (P56817 whole entry): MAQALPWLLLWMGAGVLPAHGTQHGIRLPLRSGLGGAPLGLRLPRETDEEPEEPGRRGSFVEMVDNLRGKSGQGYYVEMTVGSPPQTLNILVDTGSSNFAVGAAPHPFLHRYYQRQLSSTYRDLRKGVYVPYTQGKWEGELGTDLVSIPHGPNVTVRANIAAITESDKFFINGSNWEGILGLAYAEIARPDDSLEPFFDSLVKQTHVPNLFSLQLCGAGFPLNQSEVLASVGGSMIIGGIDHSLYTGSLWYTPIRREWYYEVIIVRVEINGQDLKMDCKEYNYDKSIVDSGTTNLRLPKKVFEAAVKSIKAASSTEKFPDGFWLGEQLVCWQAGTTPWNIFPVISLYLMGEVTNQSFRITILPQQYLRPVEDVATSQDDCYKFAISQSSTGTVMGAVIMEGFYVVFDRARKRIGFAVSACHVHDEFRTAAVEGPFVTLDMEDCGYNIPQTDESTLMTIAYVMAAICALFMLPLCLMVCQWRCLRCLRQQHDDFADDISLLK

Turning to `COC(=O)CCc1c(O)cc2occc2c1OCC=C(C)C` [6,7-Furano-5-prenyloxy hydrocoumaric acid methyl ester], the Ki turned out to be 11.3 µM.

The values above are taken from BindingDB's records for doi:10.1016/j.bmc.2009.10.004 (Kinki University, 2010).
